Measured values: ChEMBL document CHEMBL1137798, “Evaluation of natural products as inhibitors of human immunodeficiency virus type 1 (HIV-1) reverse transcriptase” (J Nat Prod, 1991)
Where a name gives a salt, the structure may show the parent alone.

Target: Human immunodeficiency virus type 1 reverse transcriptase (Human immunodeficiency virus 1, UniProt Q72547)
Conditions: read-out: IC50 (converted)

SMILES | IC50 [µM]
C1CCN2C[C@@H]3C[C@@H](CN4CCCC[C@@H]34)[C@H]2C1 [SPARTEINE SULFATE] | > 473
C1CCN2C[C@@H]3C[C@@H](CN4CCCC[C@@H]34)[C@H]2C1 [SPARTEINE] | > 853
C=C1C[C@@]23CC[C@H]4[C@@](C)(CCC[C@@]4(C)C(=O)O)[C@@H]2CC[C@]1(O)C3 [STEVIOL] | > 628
C=C1C[C@@]23CC[C@H]4[C@@](C)(CCC[C@@]4(C)C(=O)O[C@@H]4O[C@H](CO)[C@@H](O)[C@H](O)[C@H]4O)[C@@H]2CC[C@]1(O[C@@H]1O[C@H](CO)[C@@H](O)[C@H](O)[C@H]1O[C@@H]1O[C@H](CO)[C@@H](O)[C@H](O)[C@H]1O)C3 [STEVIOSIDE] | > 248
CC[C@H](/C=C/[C@@H](C)[C@H]1CC[C@H]2[C@@H]3CC=C4C[C@@H](O)CC[C@]4(C)[C@H]3CC[C@]12C)C(C)C [STIGMASTEROL] | > 485
O=C(OC[C@H]1O[C@@H](OC(=O)c2cc(O)c(O)c(OC(=O)c3cc(O)c(O)c(O)c3)c2)[C@H](OC(=O)c2cc(O)c(O)c(OC(=O)c3cc(O)c(O)c(O)c3)c2)[C@@H](OC(=O)c2cc(O)c(O)c(OC(=O)c3cc(O)c(O)c(O)c3)c2)[C@@H]1OC(=O)c1cc(O)c(O)c(OC(=O)c2cc(O)c(O)c(O)c2)c1)c1cc(O)c(O)c(OC(=O)c2cc(O)c(O)c(O)c2)c1 [TANNIC ACID] | < 29.4
COC(=O)C1=CO[C@@H](C)[C@@H]2CN3CCc4c([nH]c5ccccc45)[C@@H]3C[C@H]12 [TETRAHYDROALSTONINE] | > 567
COc1cc2c(cc1OC)[C@@H]1Cc3ccc(OC)c(OC)c3CN1CC2 [TETRAHYDROPALMATINE] | > 563
COc1cc(C[C@H]2c3cc(OC)c(OC)cc3CCN2C)c(Oc2cc3c(cc2OC)-c2c(OC)c(OC)cc4c2[C@H](C3)N(C)CC4)cc1OC [THALICARPINE] | > 287
C=C(C)C(O)C(O)c1cc2ccc(=O)oc2cc1OC (stereo unspecified) [THAMNOSMONIN] | > 724
COc1cc2c(c3c1c(=S)c1ccccc1n3C)C=CC(C)(C)O2 [THIOACRONYCINE] | > 593
O=C(/C=C/c1ccc(O)cc1)OC[C@H]1O[C@@H](Oc2c(-c3ccc(O)cc3)oc3cc(O)cc(O)c3c2=O)[C@H](O)[C@@H](O)[C@@H]1O [TILIROSIDE] | < 336
CC1=C(O)C(=O)C=C2C1=CC=C1[C@@]2(C)CC[C@@]2(C)[C@@H]3C[C@@H](C)C(=O)[C@@H](O)[C@]3(C)CC[C@]12C [TINGENIN B] | > 458
C[C@H]1CC[C@]2(NC1)O[C@H]1C[C@H]3[C@@H]4CC[C@H]5C[C@@H](O[C@@H]6O[C@H](CO)[C@H](O[C@@H]7O[C@H](CO)[C@@H](O)[C@H](O[C@@H]8OC[C@@H](O)[C@H](O)[C@H]8O)[C@H]7O[C@@H]7O[C@H](CO)[C@@H](O)[C@H](O)[C@H]7O)[C@H](O)[C@H]6O)CC[C@]5(C)[C@H]4CC[C@]3(C)[C@H]1[C@@H]2C [TOMATINE] | > 193
O[C@H]1[C@H]2[C@H](O)CCCN2C[C@H]1O [TRIDOLGOSIR] | > 1150
C[n+]1cccc(C(=O)[O-])c1 [TRIGONELLINE HYDROCHLORIDE] | > 1150
CC[C@H]1CN2CCc3cc(OC)c(OC)cc3[C@@H]2C[C@@H]1C[C@H]1NCCc2c1[nH]c1ccc(O)cc21 [TUBULOSINE] | > 420
COc1cc(O)c2c(=O)cc(-c3ccc(O)c(OC)c3)oc2c1 [VELUTIN] | > 636
C/C=C(/C)C(=O)O[C@H]1CC[C@@]2(C)[C@@H]3CC[C@H]4[C@]5(O)C[C@H](O)[C@@]6(O)[C@@H](CN7C[C@@H](C)CC[C@H]7[C@@]6(C)O)[C@]5(O)C[C@]42O[C@]13O [VERATRINE] | > 338
CC[C@]1(O)C[C@@H]2CN(CCc3c([nH]c4ccccc34)[C@@](C(=O)OC)(c3cc4c(cc3OC)N(C)[C@H]3[C@@](O)(C(=O)OC)[C@H](OC(C)=O)[C@]5(CC)C=CCN6CC[C@]43[C@@H]65)C2)C1 [VINBLASTINE] | > 247
C/C=C1\CN2[C@H]3C[C@@]45c6ccccc6N(C)[C@@H]4[C@@H]2C[C@@H]1[C@@]3(C(=O)OC)C5O (stereo partly specified) [VINCAMAJINE] | > 546
